Values belong to the molecule of their own block, whether it stands above or below them. Calls of active or inactive are those of the source. No cut-off for these calls is given here.
What was measured:
[1] = biological target: T1, Probable G-protein coupled receptor 174 (Homo sapiens, UniProt Q9BXC1); experiment: Inverse agonist activity at human GPR174 expressed in cells assessed as inhibition of CRE-luc reporter activity by measuring decrease in Gs-protein signalling activity relative to control; assay type: functional, cell-based
[2] = biological target: T1, Probable G-protein coupled receptor 174; experiment: Antagonist activity at human GPR174 expressed in cells assessed as inhibition of CRE-luc reporter activity by measuring decrease in Gs-protein signalling activity relative to control; assay type: functional, cell-based; conditions: filed as antagonist
[3] = biological target: T1, Probable G-protein coupled receptor 174; experiment: Allosteric modulator activity at human GPR174 expressed in cells assessed as inhibition of CRE-luc reporter activity by measuring decrease in Gs-protein signalling activity relative to control; assay type: functional, cell-based; conditions: filed as […] allosteric modulator
[4] = biological target: T1, Probable G-protein coupled receptor 174; experiment: Inhibition of human GPR174 in anti-CD3/antiCD28-stimulated human PBMC assessed as increase in IL-2 level measured after 2 days by ELISA; assay type: functional, tissue-based; conditions: time 2.0 day
[5] = biological target: T1, Probable G-protein coupled receptor 174; experiment: Inhibition of human GPR174 in anti-CD3/antiCD28-stimulated human PBMC assessed as reduction in natural Treg cells (FoxP3+Helios+) measure after 7 days by ELISA; assay type: functional, cell-based; conditions: dose 3-30 µM, time 7.0 day
Splenocyte = experiment: Effect on IL-2 production in mouse GPR174 knock out splenocytes at 10 uM measured after 2 days; assay type: functional, cell-based; conditions: time 2.0 day
[6] = biological target: T1, Probable G-protein coupled receptor 174; experiment: Inhibition of GPR174 (unknown origin) in cells assessed as incorporation of nuclear localization sequence into transmembrane protein by cellular redistribution assay; assay type: functional
[7] = biological target: T1, Probable G-protein coupled receptor 174; experiment: Inhibition of human GPR174 in anti-CD3/antiCD28-stimulated human PBMC assessed as increase in IL-2 production measured after 2 days; assay type: functional, tissue-based; conditions: dose 3-60 µM, time 2.0 day
[8] = biological target: T1, Probable G-protein coupled receptor 174; experiment: Inhibition of human GPR174 in anti-CD3/antiCD28-stimulated human PBMC assessed as CD8+ cell population at 10 uM measured after 2 days relative to control; assay type: functional, tissue-based; parameters: scale not given: the % may be the effect or the level left; conditions: time 2.0 day
[9] = biological target: T1, Probable G-protein coupled receptor 174; experiment: Inhibition of GPR174 in anti-CD3/antiCD28-stimulated human PBMC assessed as increase in IFNgamma level measured after 2 days by ELISA; assay type: functional, tissue-based; conditions: time 2.0 day
[10] = biological target: T1, Probable G-protein coupled receptor 174; experiment: Inhibition of human GPR174 in anti-CD3/antiCD28-stimulated human PBMC assessed as CD4+ cell population at 10 uM measured after 2 days relative to control; assay type: functional, tissue-based; parameters: scale not given: the % may be the effect or the level left; conditions: time 2.0 day
[11] = biological target: T1, Probable G-protein coupled receptor 174; experiment: Inhibition of human GPR174 in anti-CD3/antiCD28-stimulated human PBMC assessed as reduction in natural Treg cells (FoxP3+Helios+) at 100 uM measure after 7 days by flow cytometry; assay type: functional, cell-based; conditions: time 7.0 day
[12] = biological target: T1, Probable G-protein coupled receptor 174; experiment: Inhibition of human GPR174 in anti-CD3/antiCD28-stimulated human PBMC assessed as increase in IL-10 production at 10 uM measured after 2 days relative to control; assay type: functional, tissue-based; conditions: time 2.0 day
[13] = biological target: T1, Probable G-protein coupled receptor 174; experiment: Inhibition of human GPR174 in anti-CD3/antiCD28-stimulated human PBMC assessed as increase in IFNgamma production at 10 uM measured after 2 days relative to control; assay type: functional, tissue-based; conditions: time 2.0 day
[14] = biological target: T1, Probable G-protein coupled receptor 174; experiment: Inhibition of human GPR174 in anti-CD3/antiCD28-stimulated human PBMC assessed as reduction in CTLA4 expression relative to control; assay type: functional, tissue-based; conditions: dose 0.19-6 µM
[15] = biological target: T1, Probable G-protein coupled receptor 174; experiment: Inhibition of human GPR174 in anti-CD3/antiCD28-stimulated CD45RA-FOXP+ human PBMC assessed as reduction in CTLA4 expression measured in memory Treg cells relative to control; assay type: functional, cell-based; conditions: dose 0.19-6 µM
[16] = biological target: T1, Probable G-protein coupled receptor 174; experiment: Inhibition of human GPR174 in anti-CD3/antiCD28-stimulated human PBMC assessed as reduction in TGIT expression in CD8+ T cell relative to control; assay type: functional, tissue-based
[17] = biological target: T1, Probable G-protein coupled receptor 174; experiment: Inhibition of human GPR174 in anti-CD3/antiCD28-stimulated human PBMC assessed as non-T cell cell population at 10 uM measured after 2 days relative to control; assay type: functional, tissue-based; parameters: scale not given: the % may be the effect or the level left; conditions: time 2.0 day
[18] = biological target: T1, Probable G-protein coupled receptor 174; experiment: Inhibition of human GPR174 in anti-CD3/antiCD28-stimulated CD45RA-FOXP+ human PBMC assessed as reduction in CTLA4 expression measured in non-memory Treg cells relative to control; assay type: functional, cell-based; conditions: dose 0.19-6 µM
[19] = biological target: T1, Probable G-protein coupled receptor 174; experiment: Inhibition of human GPR174 in anti-CD3/antiCD28-stimulated human PBMC assessed as increase in natural Treg cells […] at 100 uM measure after 7 days by flow cytometry; assay type: functional, cell-based; conditions: time 7.0 day
[20] = biological target: T1, Probable G-protein coupled receptor 174; experiment: Inhibition of human GPR174 in anti-CD3/antiCD28-stimulated human PBMC assessed as reduction in AREG expression in CD4+ T cell relative to control; assay type: functional, tissue-based
[21] = biological target: Probable G-protein coupled receptor 174 (Mus musculus) (UniProt Q3U507); experiment: Inhibition of mouse GPR174 in anti-CD3/antiCD28-stimulated mouse splenocytes assessed as increase in IL-2 production at 10 uM measured after 2 days; assay type: functional, tissue-based; conditions: Splenocyte, time 2.0 day
[22] = biological target: T1, Probable G-protein coupled receptor 174; experiment: Inhibition of human GPR174 in anti-CD3/antiCD28-stimulated human PBMC assessed as increase in TNFalpha production at 10 uM measured after 2 days relative to control; assay type: functional, tissue-based; conditions: time 2.0 day
[23] = biological target: T1, Probable G-protein coupled receptor 174; experiment: Inhibition of human GPR174 in anti-CD3/antiCD28-stimulated human PBMC assessed as increase in IL-6 production at 10 uM measured after 2 days relative to control; assay type: functional, tissue-based; conditions: time 2.0 day
[24] = biological target: T1, Probable G-protein coupled receptor 174; experiment: Inhibition of human GPR174 in anti-CD3/antiCD28-stimulated human regulatory T cells assessed as reduction in CTLA4 expression relative to control; assay type: functional, tissue-based; conditions: T cell, dose 0.19-6 µM
[25] = biological target: T1, Probable G-protein coupled receptor 174; experiment: Inhibition of human GPR174 in anti-CD3/antiCD28-stimulated human PBMC assessed as reduction in PD-L1 expression in CD4+ T cell relative to control; assay type: functional, tissue-based

T1 sequence (Q9BXC1 whole entry): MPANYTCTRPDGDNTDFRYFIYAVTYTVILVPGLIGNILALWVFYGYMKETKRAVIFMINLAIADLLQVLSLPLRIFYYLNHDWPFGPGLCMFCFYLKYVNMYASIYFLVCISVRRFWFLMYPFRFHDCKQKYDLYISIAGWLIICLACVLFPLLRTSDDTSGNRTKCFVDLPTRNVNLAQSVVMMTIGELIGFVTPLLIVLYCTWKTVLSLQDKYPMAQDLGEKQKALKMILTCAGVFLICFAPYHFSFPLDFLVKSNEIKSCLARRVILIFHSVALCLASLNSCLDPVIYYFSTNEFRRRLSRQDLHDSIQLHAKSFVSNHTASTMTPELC
Chain of Probable G-protein coupled receptor 174 (Mus musculus) (Q3U507 whole entry): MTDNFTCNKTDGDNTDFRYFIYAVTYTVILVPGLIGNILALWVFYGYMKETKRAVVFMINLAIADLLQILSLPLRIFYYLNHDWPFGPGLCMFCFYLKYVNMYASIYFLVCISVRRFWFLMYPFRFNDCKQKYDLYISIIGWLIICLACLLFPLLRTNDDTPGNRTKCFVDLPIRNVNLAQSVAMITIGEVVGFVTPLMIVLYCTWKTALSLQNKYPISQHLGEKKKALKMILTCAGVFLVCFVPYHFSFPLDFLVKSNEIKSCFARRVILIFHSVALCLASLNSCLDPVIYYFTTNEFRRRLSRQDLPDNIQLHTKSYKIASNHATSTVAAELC

SMILES: C=C(C)COc1ccc(NC(=O)Nc2ccccc2)cc1
Ratio [1]: 3.7

SMILES: CCOc1ccc(C2C3=C(CCCC3=O)NC3=C2C(=O)c2ccccc23)cn1 (stereo not given)
Ratio [1]: 3

SMILES: CC1CCN(c2cc(N3CCN(S(=O)(=O)c4ccccc4)CC3)c([N+](=O)[O-])cc2F)CC1
Activity [5]: Dose-Dependent Effect
Activity (Splenocyte): inactive
EC50 [6]: 600 nM
Activity [7]: Dose-Dependent Effect
Activity [8]: 17.1%
Activity [9]: Active
Activity [10]: 46.2%
Activity [11]: Active
Activity [4]: Dose-Dependent Effect
Activity [12]: Active
Activity [13]: Active
Activity [14]: Dose-Dependent Effect
Activity [15]: Active
Activity [16]: Dose-Dependent Effect
Activity [17]: 33.9%
Activity [18]: Active
Activity [19]: Active
Activity [20]: Dose-Dependent Effect
Activity [21]: Active
Activity [22]: Active
Activity [23]: Active
Activity [24]: Dose-Dependent Effect
Activity [25]: Dose-Dependent Effect

SMILES: Cc1cc(Cc2ccc(NC(=O)c3cccs3)c(C)c2)ccc1NC(=O)c1cccs1
Activity [2]: Active
EC50 [6]: 500 nM
Activity [3]: Active

SMILES: CC(=O)c1ccc(N2CCN(C(=O)c3ccc(F)cc3)CC2)c(F)c1
Activity [2]: Active
Activity [3]: Active

Further lines, results first:

Activity [2]: Active
Activity [3]: Active
SMILES: Cc1ccccc1Nc1nnc(-c2ccc(C)c(S(N)(=O)=O)c2)c2ccccc12

Activity [4]: Dose-Dependent Effect
SMILES: O=C(c1ccccc1)N1CCN(c2cc(N3CCCCC3)c(F)cc2[N+](=O)[O-])CC1

Activity [2]: Active
Activity [3]: Active
SMILES: O=C(N/N=C/c1cc(Cl)ccc1O)c1ccncc1

Activity [2]: Active
Activity [3]: Active
SMILES: Cc1cc(C(=O)N/N=C/c2cc(Br)ccc2O)c(C)o1

Activity [2]: Active
SMILES: CCCC(=O)c1ccc(N2CCN(S(=O)(=O)c3ccc(C)cc3)CC2)c(F)c1

Activity [2]: Active
Activity [3]: Active
SMILES: Cc1ccc(-c2nnc(Nc3ccccc3)c3ccccc23)cc1S(N)(=O)=O

From ChEMBL document CHEMBL4806960, “Inhibitors of GPR174 and Uses Thereof” (2020)
